# Test results published in patent US20060122281A1, “Regimen for treating prostate tissue and surgical kit for use in the regimen” (AMS Research Corporation, priority 2001, published 2006).
# Several values for one entry are separate records, joined by “and”; a condition that tells them apart may be missing. Identical values can stand only once.
# Tests used:
# prostate weight = details: compared with antiandrogens presently used; cited from earlier work
# [1] = dosages up to 200 mg per day, long-term clinical trials; cited from earlier work
# [2] = test system: Human patients exhibiting symptoms of BPH; test: Prostate size by MRI after transurethral ethanol ablation with coadministered bicalutamide; assay type: in vivo; details: individual patient
# Experimental: (§1) Measurements of each patient's prostate size were obtained prior to ethanol ablation by MRI. Flowmetry measurements were also taken.
# (§2) Each patient was then administered ethanol ablation therapy by transurethral injection directly into prostate tissue, as summarized in Table 1. Total amount of ethanol injected ranged from about 22% to about 38% relative to the volume of the patient's prostate. The number of injection sites ranged from 3 to 11; the average number of injection sites was 5.8. Following ethanol ablation therapy, each patient was administered bicalutamide, 150 mg orally each day for sixty days, beginning on the day of treatment.
# (§3) A three-month and six-month follow-up examination was done for each patient to evaluate prostate size and flowmetry results.
# [3] = test system: Human patients exhibiting symptoms of BPH; test: Flowmetry after transurethral ethanol ablation with coadministered bicalutamide; assay type: in vivo; details: individual patient
# Experimental: as §1, §2, §3
# [4] = test system: Human patients exhibiting symptoms of BPH; test: International Prostate Symptom Score questionnaire; assay type: in vivo; details: individual patient
# Experimental: as §2, with “Measurements of each patient's prostate size were obtained prior to ethanol ablation by MRI. Flowmetry measurements were also taken. Each” for “Each”, “treatment. Survey data was also acquired pre-treatment and at the three-month and six-month followups. Patients were evaluated for subjective symptom severity using an International Prostate Symptom Score questionnaire.” for “treatment.”
Structure (SMILES),potency in reducing prostate weight (prostate weight),tolerability [1],Post-treatment Evaluation (3 months) Size ([2]; 3 months after transurethral ethanol ablation plus bicalutamide 150 mg orally each day for sixty days),Post-treatment Evaluation (6 months) Size ([2]; 6 months after transurethral ethanol ablation plus bicalutamide 150 mg orally each day for sixty days),"Post-treatment Evaluation (3 months) Qmax ([3]; maximum flow rate, 3 months after ethanol ablation plus bicalutamide 150 mg orally daily for sixty days)","Post-treatment Evaluation (6 months) Qmax ([3]; maximum flow rate, 6 months after ethanol ablation plus bicalutamide 150 mg orally daily for sixty days)","Post-treatment Evaluation (3 months) Qmed ([3]; median flow rate, 3 months after ethanol ablation plus bicalutamide 150 mg orally daily for sixty days)","Post-treatment Evaluation (6 months) Qmed ([3]; median flow rate, 6 months after ethanol ablation plus bicalutamide 150 mg orally daily for sixty days)",IPSS at 3 months ([4]; 3 months after ethanol ablation plus bicalutamide 150 mg orally daily for sixty days),IPSS at 6 months ([4]; 6 months after ethanol ablation plus bicalutamide 150 mg orally daily for sixty days)
CC1(C)C(=O)N(c2ccc(C#N)c(C(F)(F)F)c2)C(=O)N1CC#N [RU 58642],more potent,,,,,,,,,
"CC(O)(CS(=O)(=O)c1ccc(F)cc1)C(=O)Nc1ccc(C#N)c(C(F)(F)F)c1 (racemic) [bicalutamide, (+−) N-[4-cyano-3-(trifluoromethyl)phenyl]-3-[(4-fluorophenyl)sulfonyl]-2-hydroxy-2-methyl propanimide]",,well-tolerated,40 g (2×) and 36 g and 28 g and 30 g (2×) and 25 g and 78 g (2×) and 63 g and 45 g and 42 g and 54 g and 98 g and 15 g,28 g (2×) and 30 g and 20 g (3×) and 21 g (2×) and 19 g (2×) and 32 g and 18 g (2×) and 27 g and 23 g,18 mL/sec (2×) and 7 mL/sec and 4 mL/sec and 12 mL/sec (2×) and 11 mL/sec (2×) and 17 mL/sec (2×) and 13 mL/sec (2×) and 15 mL/sec and 10 mL/sec and 21 mL/sec,18 mL/sec and 13 mL/sec (2×) and 19 mL/sec and 15 mL/sec (4×) and 14 mL/sec and 30 mL/sec and 17 mL/sec (2×) and 12 mL/sec and 20 mL/sec and 21 mL/sec,11 mL/sec and 3 mL/sec (2×) and 4 mL/sec and 7 mL/sec (4×) and 5 mL/sec (3×) and 8 mL/sec and 2 mL/sec (2×) and 9 mL/sec,11 mL/sec (3×) and 10 mL/sec (4×) and 9 mL/sec (5×) and 13 mL/sec and 8 mL/sec and 5 mL/sec,10 (2×) and 4 (2×) and 8 (2×) and 24 and 9 and 21 and 14 and 15 and 13 and 3 and 20 and 18,9 (2×) and 6 and 8 (4×) and 14 and 12 (2×) and 7 and 10 and 3 and 20 and 4
